Assay results taken from patent publication US9469854B2, “Pharmaceutical composition for treating liver diseases” (Academia Sinica, priority 2014, dated 2016).

What was measured:
SPEBF2 = assay: qRT-PCR mRNA expression in primary human hepatocytes; type: cell-based; conditions: PHH, 40 μM berberine, 4-8 h
Description: The primary human hepatocytes from Caucasian donors were purchased from Invitrogen and cultured following the manufacturer's instructions. The hepatocytes were thawed and transferred into cryopreserved hepatocytes recovery medium (CM7000, Invitrogen), centrifuging at room temperature, 100×g for 10 min. Then, the hepatocytes were diluted to seeding density with plating medium (CM3000, Invitrogen) and added into collagen I-coated plates (Invitrogen). These plates were incubated at 37° C. for 4-6 hours under 5% CO2 for forming a monolayer. Then, plating medium was replaced by overlay incubation medium (CM4000 and 0.35 mg/mL Geltrex™ Matrix, Invitrogen), and the incubation medium was replaced daily. In the following examples, hepatocytes form 3 to 4 donors were used for experiments.
A 50 mM stock solution of berberine chloride (Sigma-Aldrich) was prepared in dimethyl sulfoxide (DMSO). Cells were treated with 40 μM of berberine chloride or 0.08% DMSO as the control. For induction of lipid droplets formation in cultured cells, 200 μM of oleic acid (Sigma-Aldrich) was added into the culture medium for 24 h.
Total RNA was extracted using a TRIZOL reagent (Invitrogen) according to the manufacturer's protocol. The total RNA quantity was measured using a NanoDrop ND-1000 spectrophotometer (Nanodrop Technologies). […]

EEF2K = assay: qRT-PCR mRNA expression in HepG2 cells; type: cell-based, human; conditions: HepG2, 50 nM mimic transfection, 24 hours
Description: (§1) The human HepG2 cells and HEK 293T cells used in the following examples were originally obtained from the American Tissue Culture Collection (ATCC, USA). The human HCC HepG2 cell line was cultured in Minimum Essential Medium Eagle (Sigma) supplemented with 10% fetal bovine serum (FBS) (Invitrogen), 2.2 g/L of sodium bicarbonate (Sigma), 0.1 mM of non-essential amino acids (Caisson), 1 mM of sodium pyruvate (Invitrogen), and 10 of ml/L penicillin-streptomycin-amphotericin solution (Biological Industries). Human HEK-293T cells were maintained in high-glucose Dulbecco's modified eagle medium (Invitrogen) supplemented with 10% FBS and 3.7 g/L of sodium bicarbonate (Sigma). Both cell lines were cultured at 37° C. and 5% CO2.
(§2) Total RNA was extracted using a TRIZOL reagent (Invitrogen) according to the manufacturer's protocol. The total RNA quantity was measured using a NanoDrop ND-1000 spectrophotometer (Nanodrop Technologies). The total RNA quality and integrity were assayed using an Agilent 2100 bioanalyzer with an RNA 6000 nano kit (Agilent Technologies).
(§3) Total RNAs (1 μg) were reverse-transcribed into cDNA by using M-MuLV Reverse Transcriptase (Thermo) and Oligo(dT)12-18 primers (Invitrogen) according to the manufacturer's protocol. The cDNA were then used for a real-time PCR with a LightCycler 480 SYBR Green I Master (Roche) by using primers shown in the following Table 1. The gene expression levels were normalized to GAPDH levels.
(§4) The HepG2 cells were transfected at a density of 5×10^4 cells per well in a 24-well culture plates with either 50 nM of hsa-miR-21-3p (miR-21-3p mimic) or negative-control mimic (NC mimic), or with either 100 nM of hsa-miR-21-3p inhibitor (miR-21-3p inhibitor) or negative-control inhibitor (NC inhibitor) by using the DharmaFECT 4 transfection reagent (Thermo Scientific Dharmacon) according to the manufacturer's instructions. Cells were incubated for 24 h or 48 h with a microRNA mimic or inhibitor prior to RNA purification for gene expression analysis, and were incubated for 72 h for protein expression analysis.

DIDO1 = assay: qRT-PCR mRNA expression in HepG2 cells; type: cell-based, human; conditions: HepG2, 50 nM mimic transfection, 24 hours
Description: as §1, §2, §3, §4

DGAT2 = assay: qRT-PCR mRNA expression in HepG2 cells; type: cell-based, human; conditions: HepG2, miR-21-3p over-expressed, 24 h
Description: as §1, §2, §3, §4

TMEM137 = assay: qRT-PCR mRNA expression in HepG2 cells; type: cell-based, human; conditions: HepG2, 50 nM mimic transfection, 24 hours
Description: as §1, §2, §3, §4

NBPF8 = assay: qRT-PCR mRNA expression in HepG2 cells; type: cell-based, human; conditions: HepG2, 50 nM mimic transfection, 24 hours
Description: as §1, §2, §3, §4

Compound | mRNA expression of SPEBF2 (SPEBF2) | decrease in mRNA expression of EEF2K (EEF2K) | decrease in mRNA expression of DIDO1 (DIDO1) | decrease in mRNA level of DGAT2 (DGAT2) | decrease in mRNA expression of TMEM137 (TMEM137) | decrease in mRNA expression of NBPF8 (NBPF8)
COc1ccc2cc3[n+](cc2c1OC)CCc1cc2c(cc1-3)OCO2 [berberine] | decreases |  |  |  |  | 
hsa-miR-21-3p (CAACACCAGUCGAUGGGCUGU; listed as RNA, chemistry not given here) [miR-21-3p mimic] |  | > 50% | < 50% | 2.3 fold | < 50% | < 50%
